Reference: patent US20260132128A1, “COMPOUND FOR RECOVERING P53 MUTATION FUNCTION AND USE THEREOF” (SHENZHEN ZHONGGE BIOLOGICAL TECHNOLOGY CO., LTD., priority 2022, published 2026)
pEC50: −log10 of the molar value. Marks after values point to notes of the source that are not given here.

How the values were obtained:
p53 Y220C [1] = target: T1, p53 Y220C (Homo sapiens, UniProt P04637, P309S/R273H/Y220C); test: DNA binding test (HTRF): binding of P53Y220C protein to DNA; format: biochemical; conditions: HTRF, activation of p53 Y220C (aa 94-312) binding to biotin DNA
T1 construct: a truncated mutant containing only amino acids 94-312 of p53; made in house; host or cells: E. coli
Description: (§1) In order to detect the ability of the aforementioned compounds to increase the binding of P53Y220C protein to DNA, the binding activity of p53 Y220C was measured by homogeneous time-resolved fluorescence (HTRF). Recombinant His-tagged p53 Y220C for HTRF measurement was expressed in bacteria E. coli. The recombinant protein was a truncated mutant containing only amino acids 94-312 of p53, and its sequence was […] […] VEGNLR […] TFRh[…] […]. The sense strand of the DNA double strand was 5′-[…]-3′, with a biotin tag at the 5′ end for activity assay, and the antisense strand was 5′-[…]-3′ 40 mL of assay buffer (20 mM Tris HCL, pH 7.5, 50 mM NaCl, 2 mM MgCl2, 0.02% Tween 20, 0.01% BSA, 1 mM DTT) was prepared. 10 mM compound was prepared and subjected to 3-fold dilution to obtain 10 dose gradient dilutions of the compound. 20 nL of the compound was added to a 384-well assay plate (PerkinElmer 6007299) using an Echo 655 Liquid Handler. P53Y220C protein was dissolved in assay buffer to reach a final concentration of 150 nM, and 5 μL thereof was added to each well, and incubated at room temperature for 5 min. DNA was dissolved in assay buffer to reach a final concentration of 150 nM, and 5 μL thereof was added to each well, and incubated at room temperature for 15 min. Anti 6HIS-XL665 (Cisbio 61HISXLB) was dissolved in assay buffer to reach a final concentration of 20 nM, and 5 μL thereof was added to each well. Streptavidin-Eu cryptate (Cisbio 610SAKLA) was dissolved in assay buffer to reach a final concentration of 0.625 nM, and 5 μL thereof was added to each well, and incubated at 27° C. for 1 hour. The plate was then read for signal values on an Envision (PerkinElmer 2105-0020) plate reader at 665 nm and 615 nm, respectively. […] Activation rate={(A-C)/(C)}*100%, A=(signal value at 665 nm/signal value at 615 nm); C=average signal of negative control (wherein, negative control referred to 0.1% DMSO).

p53 Y220C [2] = target: T2, p53 Y220C (Homo sapiens, UniProt P04637, Y220C); test: as above; format: biochemical; conditions: multiple ratio of EC50 of the compound to the reference compound, DNA binding test
T2 construct: a truncated mutant containing only amino acids 94-312 of p53; made in house; host or cells: E. coli
Description: as §1

NUGC-3 cells = test: NUGC-3 cell proliferation assay (CTG); format: cell-based, human; conditions: for Compound GI50 (nM)/Reference compound GI50 (nM): multiple ratio of GI50 of the compound to the reference compound; for GI50: 6 days, CTG
Description: In order to detect the inhibitory effect of the aforementioned compounds on the proliferation ability of NUGC-3 cells, 250 NUGC-3 cells (Nanjing Cobioer Biosciences Co., Ltd., CBP60492) were seeded into a 384-well plate (Corning 3765), 35 μL per well, and incubated overnight in a constant temperature incubator at 37° C. and 5% CO2. Then, 40 nL of the compound was added to the 384-well plate using an Echo 655 Liquid Handler, with a maximum final concentration of 10 μM, 1:3 serial dilutions, and a total of 10 doses. The culture was performed at 37° C. and 5% CO2 for 6 days. The plate was taken out from the incubator and equilibrated at room temperature for 10 minutes. 20 μL of CTG (Promage G7572) was added to each well of the plate according to the platemap. The plate was centrifuged at 1000 rpm for 1 min. The lysis of cells was induced by mixing on a shaker for 2 min. The plate was centrifuged at 1000 rpm for 1 min. Incubation was performed at room temperature for 10 min to stabilize luminescence signals. Luminescence values were recorded by Envision (PerkinElmer 2105-0020). GraphPad 9.0 was used to fit the inhibition rate and compound concentration into a nonlinear regression curve (dose response-variable slope) to calculate GI50, inhibition rate={1−(A−B)/(C−B)}*100%, A=signal value of compound; B=average signal of blank control; C=average signal of negative control (wherein negative control was 0.1% DMSO).

Compound | pEC50 (p53 Y220C [1]) | Compound EC50 (nM)/Reference compound EC50 (nM) (p53 Y220C [2]) | Compound GI50 (nM)/Reference compound GI50 (nM) (NUGC-3 cells) | GI50 (NUGC-3 cells; Homo sapiens, NUGC-3, 144 h) [µM] | GI50 (NUGC-3 cells) [µM]
COc1cc(S(=N)(=O)C2CC2)ccc1NCC#Cc1cc2c(NC3CCN(C)CC3F)cccc2n1CC(F)(F)F (single isomer, unassigned) [Compound 39d] | > 7.00 | A (A: EC50 of the compound≤EC50 of the reference compound) | A (A: GI50 of the compound ≤ GI50 of the reference compound) | – | –
CNC(=O)c1ccc(NCC#Cc2nc3c(NC4CCC(F)(F)CC4)cccn3c2CC(F)(F)F)c(OC)c1 [Compound 6] | 6.30 to 7.00 | C (C: EC50 of the compound≥3*EC50 of the reference compound) | C (C: GI50 of the compound ≥ 3 * GI50 of the reference compound) | ≥ 5 | –
COCCNC(=O)c1ccc(NCC#Cc2nc3c(N[C@@H]4CC[C@@H](N5CC6(COC6)C5)C[C@@H]4F)cccn3c2CC(F)(F)F)c(OC)c1 [Compound 52] | > 7.00 | A (A: EC50 of the compound≤EC50 of the reference compound) | C (C: GI50 of the compound ≥ 3 * GI50 of the reference compound) | – | –
CNC(=O)c1ccc(NCc2nnc(-c3nc4c(NC5CCN(C)CC5)cccn4c3CC(F)(F)F)s2)c(OC)c1 [Compound 18] | 6.30 to 7.00 | C (C: EC50 of the compound≥3*EC50 of the reference compound) | C (C: GI50 of the compound ≥ 3 * GI50 of the reference compound) | 1 to 5 | –
CN1CCC(Nc2cccn3c(CC(F)(F)F)c(-c4nnc(CNC(=O)c5cnn(C6CCOC6)c5)s4)nc23)CC1 (stereo not drawn) [Compound 22] | 6.30 to 7.00 | B (B: EC50 of the reference compound<EC50 of the compound≤3.0*EC50 of the reference compound) | C (C: GI50 of the compound ≥ 3 * GI50 of the reference compound) | ≥ 5 | –
[2H]C([2H])([2H])NC(=O)c1ccc(NCC#Cc2cc3c(NC4CCC(N5CC6(COC6)C5)CC4F)cccn3c2CC(F)(F)F)c(OCF)c1 (stereo not drawn) [Compound 78d] | > 7.00 | A (A: EC50 of the compound≤EC50 of the reference compound) | A (A: GI50 of the compound ≤ GI50 of the reference compound) | < 1 | –
CNC(=O)c1ccc(NCC#Cc2nc3c(NC4CCN(C)CC4)cncn3c2CC(F)(F)F)c(OC)c1 [Compound 2] | ≤ 6.00 | C (C: EC50 of the compound≥3*EC50 of the reference compound) | C (C: GI50 of the compound ≥ 3 * GI50 of the reference compound) | – | –
[2H]C([2H])([2H])NC(=O)c1ccc(NCC#Cc2cc3c(NC4CCC(N5CCOCC5)CC4F)cccn3c2CC(F)(F)F)c(OC([2H])([2H])[2H])c1 (single isomer, unassigned) [Compound 73d] | > 7.00 | B (B: EC50 of the reference compound<EC50 of the compound≤3.0*EC50 of the reference compound) | A (A: GI50 of the compound ≤ GI50 of the reference compound) | < 1 | –
CN1CCC(Nc2cccn3c(CC(F)(F)F)c(-c4ncc(CNC(=O)c5ccn(C(C)(C)C)c5)s4)nc23)CC1 [Compound 24] | 6.30 to 7.00 | C (C: EC50 of the compound≥3*EC50 of the reference compound) | C (C: GI50 of the compound ≥ 3 * GI50 of the reference compound) | 1 to 5 | –
CNC(=O)c1ccc(NCC#Cc2nc3c(NC4CCC(N5CC6(COC6)C5)CC4F)cccn3c2CC(F)(F)F)c(OC)c1 (single isomer, unassigned) [Compound 35-6h] | > 7.00 | B (B: EC50 of the reference compound<EC50 of the compound≤3.0*EC50 of the reference compound) | C (C: GI50 of the compound ≥ 3 * GI50 of the reference compound) | – | 1 to 5
CNC(=O)c1cc(OC)c(NCC#Cc2nc3c(N[C@H]4CC[C@H](N5CC6(COC6)C5)CC4)cccn3c2CC(F)(F)F)cc1F [Compound 27] | > 7.00 | B (B: EC50 of the reference compound<EC50 of the compound≤3.0*EC50 of the reference compound) | C (C: GI50 of the compound ≥ 3 * GI50 of the reference compound) | – | –
CNC(=O)c1ccc(NCC#Cc2nc3c(NC4CCC(C)(O)CC4)cccn3c2CC(F)(F)F)c(OC)c1 (stereo not drawn) [Compound 25] | 6.30 to 7.00 | C (C: EC50 of the compound≥3*EC50 of the reference compound) | C (C: GI50 of the compound ≥ 3 * GI50 of the reference compound) | ≥ 5 | –
COc1cc(-c2nccs2)ccc1NCC#Cc1nc2c(NC3CCN(C)CC3)cccn2c1CC(F)(F)F [Compound 16] | 6.30 to 7.00 | C (C: EC50 of the compound≥3*EC50 of the reference compound) | C (C: GI50 of the compound ≥ 3 * GI50 of the reference compound) | ≥ 5 | –
COCCNC(=O)c1ccc(NCC#Cc2nc3c(NC4CCN(C)CC4)cccn3c2CC(F)(F)F)c(OC)c1 [Compound 30] | 6.30 to 7.00 | C (C: EC50 of the compound≥3*EC50 of the reference compound) | C (C: GI50 of the compound ≥ 3 * GI50 of the reference compound) | 1 to 5 | –
CN1CCC(Nc2cccn3c(CC(F)(F)F)c(-c4noc(CNC(=O)c5ccn(C(C)(C)C)c5)n4)nc23)CC1 [Compound 17] | 6.00 to 6.30 | C (C: EC50 of the compound≥3*EC50 of the reference compound) | C (C: GI50 of the compound ≥ 3 * GI50 of the reference compound) | – | –
CNC(=O)c1ccc(NCC#Cc2nc3c(NC4CCN(CC(O)COC)CC4)cccn3c2CC(F)(F)F)c(OC)c1 (stereo not drawn) [Compound 7] | 6.30 to 7.00 | C (C: EC50 of the compound≥3*EC50 of the reference compound) | C (C: GI50 of the compound ≥ 3 * GI50 of the reference compound) | 1 to 5 | –
CNC(=O)c1ccc(NCC#Cc2nc3c(NC4CCC(N5CC6(COC6)C5)CC4F)cccn3c2CC(F)(F)F)c(OC)c1 (single isomer, unassigned) [Compound 35-6f] | > 7.00 | B (B: EC50 of the reference compound<EC50 of the compound≤3.0*EC50 of the reference compound) | C (C: GI50 of the compound ≥ 3 * GI50 of the reference compound) | – | 1 to 5
